Measured values as given in patent US20230233569A1 (Revolution Medicines, Inc., priority 2020, published 2023).

Experiments:
[1] = test system: K-Ras G12C (NCI-H358 cells); assay: Potency assay: pERK (AlphaLISA SureFire or In-Cell Western); type: cell-based; settings: Homo sapiens, NCI-H358; H358 KRAS G12C; read-out: pERK EC50
Outline: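 Cellular pERK decrease measured after 4 h compound exposure (37 °C, 5% CO2) of NCI-H358 cells, 10-point 3-fold series from 10 mM DMSO stock, duplicates. Detection either by In-Cell Western (IR-800CW secondary, DRAQ5 stain) or AlphaLISA SureFire Ultra p-ERK1/2; 4-parameter sigmoidal fit gave IC50.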

NCI-H358 (K-Ras G12C) = assay: CellTiter-Glo cell viability assay, 5-day treatment; type: cell-based; settings: Homo sapiens, NCI-H358, H358, K-Ras G12C; read-out: Additional H358 Cell Viability assay data (K-Ras G12C, IC50)
Outline: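 Seeded cells received test compound by direct dispensing. On day 5 the plates sat at room temperature approximately 30 minutes, then luminescence was measured. Data were normalized to DMSO and curve-fitted with four parameters.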

Row | Compound | EC50 [1] [nM] | IC50 (NCI-H358 (K-Ras G12C)) [nM]
1 | CCn1c(-c2cccnc2[C@H](C)OC)c2c3cc(ccc31)-c1csc(n1)C[C@H](NC(=O)[C@H](C(C)C)N(C)C(=O)N(C)C1CN(C(=O)/C=C/C(C)(C)O)C1)C(=O)N1CCC[C@H](N1)C(=O)OCC(C)(C)C2 (atropisomer, axis not shown) [Example A350] | < 5000 | 100 to 1000
2 | CCn1c(-c2cccnc2[C@H](C)OC)c2c3cc(ccc31)-c1cccc(c1)C[C@H](NC(=O)[C@@H](COC1CN(C(=O)C#C[C@@H]3COCCN3C)C1)C(C)C)C(=O)N1CCC[C@H](N1)C(=O)OCC(C)(C)C2 (atropisomer, axis not shown) [Example A648] | < 5000 | 10 to 100
3 | C=CC(=O)N1CC[C@]2(C1)OCN(C(=O)N(C)[C@H](C(=O)N[C@H]1Cc3cccc(n3)-c3ccc4c(c3)c(c(-c3cccnc3[C@H](C)OC)n4CC)CC(C)(C)COC(=O)[C@@H]3CCCN(N3)C1=O)C(C)C)C2=O (atropisomer, axis not shown) [Example A652] | < 5000 | 100 to 1000
4 | C=CC(=O)N1CC[C@H](C(=O)N(C)[C@H](C(=O)N[C@H]2Cc3nsc(n3)-c3ccc4c(c3)c(c(-c3cccnc3[C@H](C)OC)n4CC)CC(C)(C)COC(=O)[C@@H]3CCCN(N3)C2=O)C(C)C)C1 (atropisomer, axis not shown) [Example A694] | < 5000 | 10 to 100
5 | CCn1c(-c2cccnc2[C@H](C)OC)c2c3cc(ccc31)-c1csc(n1)C[C@H](NC(=O)[C@H](COC1CN(C(=O)C#CC(C)(C)N(C)C)C1)OC)C(=O)N1CCC[C@H](N1)C(=O)OCC(C)(C)C2 (atropisomer, axis not shown) [Example A705] | < 5000 | < 10
6 | C=CC(=O)N1CC(OC[C@H](C(=O)N[C@H]2Cc3cc(F)cc(c3)-c3ccc4c(c3)c(c(-c3cccnc3[C@H](C)OC)n4CC)CC(C)(C)COC(=O)[C@@H]3CCCN(N3)C2=O)C(C)C)C1 (atropisomer, axis not shown) [Example A725] | < 5000 | 10 to 100
7 | C=CC(=O)N1CC[C@@H](N(C)C(=O)N(C)[C@H](C(=O)N[C@H]2Cc3nc(cs3)-c3ccc4c(c3)c(c(-c3cccnc3[C@H](C)OC)n4CC(F)(F)F)CC(C)(C)COC(=O)[C@@H]3CCCN(N3)C2=O)C(C)C)C1 (atropisomer, axis not shown) [Example A728] | < 5000 | 10 to 100
8 | C=CC(=O)N1CC[C@@]2(CCN2C(=O)N(C)[C@H](C(=O)N[C@H]2Cc3nc(cs3)-c3ccc4c(c3)c(c(-c3cccnc3[C@H](C)OC)n4CC)CC(C)(C)COC(=O)C3CCCN(N3)C2=O)N(C)C)C1 (single isomer, unassigned) [Example A661] | < 5000 | < 10
9 | C=CC(=O)N1CC[C@H](C(=O)N(C)[C@H](C(=O)N[C@H]2Cc3cc(O)cc(c3)-c3ccc4c(c3)c(c(-c3cccnc3)n4C3CC3)CC(C)(C)COC(=O)[C@@H]3CCCN(N3)C2=O)C(C)C)C1 [Example A160] | < 5000 | 100 to 1000
10 | C=CC(=O)N1CC[C@H](C(=O)N(C)[C@H](C(=O)N[C@H]2Cc3cc(O)cc(c3)-c3ccc4c(c3)c(c(-c3cc(C)cnc3[C@H](C)OC)n4CC)CC(C)(C)COC(=O)[C@@H]3CCCN(N3)C2=O)C(C)C)C1 [Example A167] | < 5000 | 10 to 100
11 | CC#CC(=O)N1CC[C@H](C(=O)N(C)[C@H](C(=O)N[C@H]2Cc3nc(cs3)-c3ccc4c(c3)c(c(-c3cccnc3[C@H](C)OC)n4CC)CC(C)(C)COC(=O)[C@@H]3CCCN(N3)C2=O)C(C)C)C1 [Example A168] | < 5000 | 10 to 100
12 | C=CS(=O)(=O)N1CC[C@H](C(=O)N(C)[C@H](C(=O)N[C@H]2Cc3nc(cs3)-c3ccc4c(c3)c(c(-c3cncnc3)n4CC)CC(C)(C)COC(=O)[C@@H]3CCCN(N3)C2=O)C(C)C)C1 [Example A170] | < 5000 | 100 to 1000
13 | C=CC(=O)N1CC[C@H](C(=O)N(C)[C@H](C(=O)N[C@H]2Cc3cc(O)cc(c3)-c3cnc4c(c3)c(c(-c3ccccc3CCOC)n4CC)CC(C)(C)COC(=O)[C@@H]3CCCN(N3)C2=O)C(C)C)C1 [Example A210] | < 5000 | –
14 | C=CC(=O)N1CC[C@H](C(=O)N(C)[C@H](C(=O)N[C@H]2Cc3cc(O)cc(c3)-c3ccc4c(c3)c(c(-c3ccnc5c3[C@@H](OC)CC5)n4CC)CC(C)(C)COC(=O)[C@@H]3CCCN(N3)C2=O)C(C)C)C1 [Example A275] | < 5000 | < 10
15 | C=CC(=O)N1CC[C@@H](N(C)C(=O)N(C)[C@H](C(=O)N[C@H]2Cc3nc(cs3)-c3ccc4c(c3)c(c(-c3cccnc3[C@H](C)OC)n4CC)CC(C)(C)COC(=O)[C@@H]3CCCN(N3)C2=O)C(C)C)C1 [Example A349] | < 5000 | 10 to 100
16 | CCn1c(-c2cccnc2[C@H](C)OC)c2c3cc(ccc31)-c1csc(n1)C[C@H](NC(=O)[C@H](C(C)C)N(C)C(=O)N1CC(N(C)C(=O)C#CC(C)(C)N3CCC3)C1)C(=O)N1CCC[C@H](N1)C(=O)OCC(C)(C)C2 [Example A379] | < 5000 | < 10

Row | Compound | EC50 [1] [nM] | IC50 (NCI-H358 (K-Ras G12C)) [nM]
17 | C=CC(=O)N(C)C1CCN(C(=O)N(C)[C@H](C(=O)N[C@H]2Cc3nc(cs3)-c3ccc4c(c3)c(c(-c3cccnc3[C@H](C)OC)n4CC)CC(C)(C)COC(=O)[C@@H]3CCCN(N3)C2=O)C(C)C)C1 (stereo partly drawn) [Example A384] | < 5000 | < 10
18 | CCn1c(-c2cccnc2[C@H](C)OC)c2c3cc(ccc31)N1CCO[C@@](C)(CC(NC(=O)[C@H](C(C)C)N(C)C(=O)C3(F)CCN(C(=O)C#CC(C)(C)N(C)C)CC3)C(=O)N3CCC[C@H](N3)C(=O)OCC(C)(C)C2)C1 (stereo partly drawn) [Example A550] | < 5000 | < 10
19 | C=CC(=O)N1CCO[C@H]2CN(C(=O)N(C)[C@H](C(=O)N[C@H]3CN4CCC=C(C4)c4ccc5c(c4)c(c(-c4cccnc4[C@H](C)OC)n5CC)CC(C)(C)COC(=O)[C@@H]4CCCN(N4)C3=O)C(C)C)C[C@H]21 [Example A552] | < 5000 | < 10
20 | CO[C@@H](COC1CN(C(=O)C#CC(C)(C)N(C)C)C1)C(=O)N[C@H]1Cc2cccc(c2)-c2ccc3c(c2)c(c(-c2cccnc2[C@H](C)OC)n3CC(F)(F)F)CC(C)(C)COC(=O)[C@@H]2CCCN(N2)C1=O [Example A556] | < 5000 | < 10
21 | CCn1c(-c2cccnc2[C@H](C)OC)c2c3cc(ccc31)-c1cccc(c1)C[C@H](NC(=O)[C@H](C(C)C)N1CC[C@]3(CCN(C(=O)C#C[C@]4(N(C)C)CCOC4)C3)C1=O)C(=O)N1CCC[C@H](N1)C(=O)OCC(C)(C)C2 [Example A559] | < 5000 | < 10
22 | C=CC(=O)N1CCOC2(CCN(C(=O)N(C)[C@H](C(=O)N[C@H]3CN4CCC=C(C4)c4ccc5c(c4)c(c(-c4cccnc4[C@H](C)OC)n5CC)CC(C)(C)COC(=O)[C@@H]4CCCN(N4)C3=O)C(C)C)CC2)C1 [Example A563] | < 5000 | 100 to 1000
23 | CCn1c(-c2cccnc2[C@H](C)OC)c2c3cc(ccc31)-c1cccc(c1)C[C@H](NC(=O)[C@H](C(C)C)N1CC[C@]3(CCN(C(=O)C#C[C@@H]4COCCN4C4COC4)C3)C1=O)C(=O)N1CCC[C@H](N1)C(=O)OCC(C)(C)C2 [Example A565] | < 5000 | 10 to 100
24 | CCn1c(-c2cccnc2[C@H](C)OC)c2c3cc(ccc31)-c1cccc(c1)C[C@H](NC(=O)[C@@H](CN1CC[C@]3(CCN(C(=O)C#C[C@H]4COCCN4C)C3)C1=O)C(C)C)C(=O)N1CCCC(N1)C(=O)OCC(C)(C)C2 (stereo partly drawn) [Example A592] | < 5000 | < 10
25 | C=CC(=O)N1CCO[C@@]2(CCN(C(=O)N(C)[C@H](C(=O)N[C@H]3Cc4nc(cs4)-c4ccc5c(c4)c(c(-c4cccnc4[C@H](C)OC)n5CC(F)(F)F)CC(C)(C)COC(=O)C4CCCN(N4)C3=O)C(C)C)C2)C1 (stereo partly drawn) [Example A594] | < 5000 | < 10
26 | C=CC(=O)N1CCO[C@H]2CN(C(=O)N(C)[C@H](C(=O)N[C@H]3Cc4cccc(n4)-c4ccc5c(c4)c(c(-c4cccnc4[C@H](C)OC)n5CC(F)(F)F)CC(C)(C)COC(=O)C4CCCN(N4)C3=O)C(C)C)C[C@H]21 (stereo partly drawn) [Example A595] | < 5000 | < 10
27 | C=CC(=O)N1CCC2(C1)CN(C(=O)N(C)[C@H](C(=O)N[C@H]1Cc3nc(cs3)-c3ccc4c(c3)c(c(-c3cccnc3[C@H](C)OC)n4CC(F)(F)F)CC(C)(C)COC(=O)C3CCCN(N3)C1=O)C(C)C)C2 (stereo partly drawn) [Example A603] | < 5000 | 10 to 100
28 | C=CC(=O)N1CCOC2(CCN(C(=O)N(C)[C@H](C(=O)N[C@H]3Cc4cc(CF)cc(c4)-c4ccc5c(c4)c(c(-c4cccnc4[C@H](C)OC)n5CC(F)(F)F)CC(C)(C)COC(=O)C4CCCN(N4)C3=O)C(C)C)CC2)C1 (stereo partly drawn) [Example A605] | < 5000 | 10 to 100
29 | C=CC(=O)N1CCOC2(CCN(C(=O)N(C)[C@H](C(=O)N[C@H]3Cc4nc(n(C)n4)-c4ccc5c(c4)c(c(-c4cccnc4[C@H](C)OC)n5CC(F)(F)F)CC(C)(C)COC(=O)C4CCCN(N4)C3=O)C(C)C)CC2)C1 (stereo partly drawn) [Example A606] | < 5000 | 100 to 1000
30 | C=CC(=O)N1CCOC2(CCN(C(=O)N(C)[C@H](C(=O)N[C@H]3Cc4cccc(c4)-c4ccc5c(c4)c(c(-c4cccnc4[C@H](C)OC)n5CC(F)(F)F)CC(C)(C)COC(=O)C4CCCN(N4)C3=O)C(C)C)CC2)C1 (stereo partly drawn) [Example A608] | < 5000 | 10 to 100
31 | C=CC(=O)N1CCO[C@H]2CCN(C(=O)N(C)[C@H](C(=O)N[C@H]3Cc4nc(cs4)-c4ccc5c(c4)c(c(-c4cccnc4[C@H](C)OC)n5CC)CC(C)(C)COC(=O)C4CCCN(N4)C3=O)C(C)C)C[C@@H]21 (stereo partly drawn) [Example A609] | < 5000 | < 10
32 | C=CC(=O)N1CCO[C@H]2CN(C(=O)N(C)[C@H](C(=O)N[C@H]3Cc4cccc(c4)-c4ccc5c(c4)c(c(-c4cccnc4[C@H](C)OC)n5CC)CC(C)(C)COC(=O)C4CCCN(N4)C3=O)C(C)C)C[C@H]21 (stereo partly drawn) [Example A610] | < 5000 | < 10
